The results in this text go back to PMC10184130.

The target in this assay is T1, human C1s (Homo sapiens, UniProt P09871).
T1 construct: Recombinant human C1s (358–688 aa) fused with both the N-terminal IgG signal peptide; IgG signal peptide (N); His tag (C); made in house; host or cells: HEK293 cells
T1 sequence (P09871 358-688): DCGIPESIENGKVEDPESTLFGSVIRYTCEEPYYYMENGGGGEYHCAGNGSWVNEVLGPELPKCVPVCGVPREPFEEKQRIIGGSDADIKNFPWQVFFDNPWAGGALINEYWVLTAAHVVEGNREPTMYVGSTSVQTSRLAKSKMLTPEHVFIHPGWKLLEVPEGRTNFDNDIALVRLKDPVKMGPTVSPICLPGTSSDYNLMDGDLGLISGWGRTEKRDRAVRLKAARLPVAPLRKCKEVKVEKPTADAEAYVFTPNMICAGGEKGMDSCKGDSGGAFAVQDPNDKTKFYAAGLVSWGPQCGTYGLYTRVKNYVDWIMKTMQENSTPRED
Description: Human C1s enzyme assay. Type of assay: biochemical. The note with it: 95% confidence intervals in parentheses. The protocol:
Recombinant human C1s (358–688 aa) fused with both the N-terminal IgG signal peptide and the C-terminal His tag was expressed in HEK293 cells and purified. The assay was performed in a 384-well clear plate in a total volume of 20 μL of an assay buffer 1 [50 mmol/L Tris–HCl (pH 7.5), 150 mmol/L NaCl, 0.01% (w/v) Tween 20, and 0.01% (w/v) BSA]. Compounds were dissolved in DMSO and diluted to various concentrations. After 20 nL of compound solution was added to the plate, 10 μL of substrate solution containing a 250 μmol/L Z-Lys-SBzl peptide (Watanabe Chemical, Hiroshima, Japan) and 250 μmol/L DTNB (5,5′-dithiobis(2-nitrobenzoic acid)) (Sigma, MO, USA) was added to the plate. Then, 8 nmol/L human C1s was added to the plate and incubated at room temperature for 60 min. The absorbance at 405 nm was detected using an EnVision multilabel plate reader. […] The IC50 values were calculated using IDBS XLfit software.

What is called IC50 is the concentration needed to halve the response being measured. On to `Cc1cc([C@H]2CN(c3cc(F)c4c(N)nncc4c3)CCN2c2cccc(F)c2)no1` [Compound (R)-8, 8-Fluoro-6-[(3R)-4-(3-fluorophenyl)-3-(5-methyl-1,2-oxazol-3-yl)piperazin-1-yl]phthalazin-1-amine], for which the IC50 was 0.036 µM.
